# Assay results published in ChEMBL document CHEMBL1201862, “PubChem BioAssay data set” (2004).
# Active and inactive are the calls of the source.
# Assays:
# Interleukin-8 [1] = biological target: T1, Interleukin-8 (Homo sapiens, UniProt P10145); test: Dose Response confirmation of uHTS small molecule hits for cystic fibrosis induced NFkb Inhibitors in a TNFa-induced IL8 counterscreen.; format: functional; conditions: read-out: IC50_Mean
# T1 sequence (P10145 whole entry): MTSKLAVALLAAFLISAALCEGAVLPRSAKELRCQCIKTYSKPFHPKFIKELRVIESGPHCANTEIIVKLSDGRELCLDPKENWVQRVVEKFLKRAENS
# Interleukin-8 [2] = biological target: T1, Interleukin-8; test: Dose Response confirmation of uHTS small molecule hits for cystic fibrosis induced NFkb Inhibitors in a PAF-induced IL8 counterscreen.; format: functional; conditions: read-out: IC50_Mean
# [3] = biological target: T2, Apoptotic protease-activating factor 1 (Homo sapiens, UniProt O14727); test: SAR analysis of small molecule Activators of Apaf-1 in a Fluorescent assay.; format: functional; conditions: read-out: EC50_Mean
# T2 sequence (O14727 whole entry): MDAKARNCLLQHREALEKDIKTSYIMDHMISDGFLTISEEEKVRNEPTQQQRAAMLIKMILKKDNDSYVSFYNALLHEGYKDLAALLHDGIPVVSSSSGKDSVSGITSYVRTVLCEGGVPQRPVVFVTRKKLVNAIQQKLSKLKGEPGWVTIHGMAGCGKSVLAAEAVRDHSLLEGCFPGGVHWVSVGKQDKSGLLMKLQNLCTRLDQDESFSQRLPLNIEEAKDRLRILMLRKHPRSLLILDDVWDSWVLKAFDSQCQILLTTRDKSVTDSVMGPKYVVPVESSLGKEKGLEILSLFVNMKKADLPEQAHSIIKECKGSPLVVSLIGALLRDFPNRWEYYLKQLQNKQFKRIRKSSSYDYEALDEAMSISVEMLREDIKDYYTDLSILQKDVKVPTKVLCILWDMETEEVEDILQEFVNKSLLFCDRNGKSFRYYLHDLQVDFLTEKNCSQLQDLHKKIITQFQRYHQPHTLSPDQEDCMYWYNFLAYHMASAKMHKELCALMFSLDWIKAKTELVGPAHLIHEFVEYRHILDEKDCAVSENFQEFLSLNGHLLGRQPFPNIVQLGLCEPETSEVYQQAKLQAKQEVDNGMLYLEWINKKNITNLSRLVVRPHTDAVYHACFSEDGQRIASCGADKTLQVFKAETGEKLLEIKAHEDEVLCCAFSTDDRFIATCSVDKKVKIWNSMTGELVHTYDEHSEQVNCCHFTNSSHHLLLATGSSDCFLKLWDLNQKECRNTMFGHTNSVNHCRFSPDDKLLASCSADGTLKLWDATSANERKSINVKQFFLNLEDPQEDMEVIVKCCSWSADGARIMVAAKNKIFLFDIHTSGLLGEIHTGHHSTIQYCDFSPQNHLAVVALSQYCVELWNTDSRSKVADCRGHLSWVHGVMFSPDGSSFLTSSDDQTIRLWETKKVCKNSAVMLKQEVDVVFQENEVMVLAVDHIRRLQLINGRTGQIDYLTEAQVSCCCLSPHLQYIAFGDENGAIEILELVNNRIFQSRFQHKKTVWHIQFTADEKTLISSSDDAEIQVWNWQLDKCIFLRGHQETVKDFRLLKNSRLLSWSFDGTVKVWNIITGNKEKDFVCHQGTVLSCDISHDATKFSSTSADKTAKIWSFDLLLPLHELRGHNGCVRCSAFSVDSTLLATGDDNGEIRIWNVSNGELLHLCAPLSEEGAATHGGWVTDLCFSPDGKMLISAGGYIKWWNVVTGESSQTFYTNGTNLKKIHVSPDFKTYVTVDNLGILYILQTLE
# [4] = biological target: Voltage-gated inwardly rectifying potassium channel KCNH2 (Homo sapiens, UniProt Q12809); conditions: Potency;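 also: confirmatory quantitative high-throughput screen measuring inhibition of hERG channel activity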
# [5] = biological target: T3, Endoribonuclease toxin MazF (Escherichia coli K-12, UniProt P0AE70); test: MazF toxin RNase activators, dose response, biochemical, fluorescence, single-stranded RNA substrate, uHTS hits (AID 588481); format: functional
# T3 sequence (P0AE70 whole entry): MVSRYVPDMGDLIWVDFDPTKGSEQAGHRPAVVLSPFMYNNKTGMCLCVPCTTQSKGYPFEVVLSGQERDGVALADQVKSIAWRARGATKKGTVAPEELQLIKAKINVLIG
# [6] = biological target: T3, Endoribonuclease toxin MazF; test: fluorescent RNA oligo signal without MazF, dose response, counter-screen for MazEF activator project, biochemical, fluorescence, single-stranded RNase substrate (AID 588502); format: functional
# [7] = biological target: T2, Apoptotic protease-activating factor 1; test: SAR analysis of small molecule inhibitors of Apaf-1 in a Fluorescent assay.; format: functional; conditions: read-out: IC50_Mean
# [8] = biological target: T4, RNA-binding protein pos-1 (Caenorhabditis elegans, UniProt G5EF15); test: inhibitors of POS-1/mex-3 RNA binding, dose response, biochemical, fluorescence polarization (AID 1964);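 also: purified POS-1 fused to maltose binding protein made in E. coli; potency of compounds blocking POS-1 binding to fluorescent RNA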
# T4 sequence (G5EF15 whole entry): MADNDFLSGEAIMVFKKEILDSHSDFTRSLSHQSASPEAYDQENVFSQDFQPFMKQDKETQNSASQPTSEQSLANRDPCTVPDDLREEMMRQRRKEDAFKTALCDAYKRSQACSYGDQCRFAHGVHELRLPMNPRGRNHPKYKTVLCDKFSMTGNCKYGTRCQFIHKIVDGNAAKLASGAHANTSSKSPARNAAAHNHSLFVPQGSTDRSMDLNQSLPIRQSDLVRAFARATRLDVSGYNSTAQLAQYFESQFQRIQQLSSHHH
# [9] = biological target: T5, Zinc finger protein mex-5 (Caenorhabditis elegans, UniProt Q9XUB2); test: MEX-5/TCR-2 RNA interaction inhibitors, dose response, biochemical, C. elegans, fluorescence polarization (AID 1960)
# T5 sequence (Q9XUB2 whole entry): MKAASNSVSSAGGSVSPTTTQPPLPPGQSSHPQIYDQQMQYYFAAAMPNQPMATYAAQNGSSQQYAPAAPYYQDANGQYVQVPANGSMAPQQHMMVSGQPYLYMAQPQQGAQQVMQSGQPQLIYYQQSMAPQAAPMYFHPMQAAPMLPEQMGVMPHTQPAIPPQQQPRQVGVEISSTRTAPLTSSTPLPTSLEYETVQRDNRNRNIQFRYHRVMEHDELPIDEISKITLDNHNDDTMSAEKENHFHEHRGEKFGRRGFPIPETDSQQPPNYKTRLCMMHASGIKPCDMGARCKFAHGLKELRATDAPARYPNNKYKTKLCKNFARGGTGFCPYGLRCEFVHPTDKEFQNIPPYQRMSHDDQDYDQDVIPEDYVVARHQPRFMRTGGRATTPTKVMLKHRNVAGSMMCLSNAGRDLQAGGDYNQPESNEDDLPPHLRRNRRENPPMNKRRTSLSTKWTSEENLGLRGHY
# CHO = test: cytotoxicity in TLR9-MyD88 CHO cells, dose response, cytotoxicity control for TLR9-MyD88 binding inhibitor project, cell-based, luminescence (AID 588339); format: functional, hamster; conditions: Cricetulus griseus;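 also: CHO cells stably coexpressing TLR9 and MyD88 fusions from primary screen; compound exposure lasted 48 hours before viability readout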
# Beta Lactamase = Beta Lactamase (Pseudomonas aeruginosa, UniProt Q932Y6); test: beta-lactamase reporter inhibitor potency, dose response, artefact control for TLR9-MyD88 binding inhibitor project, BLA reporter cells, FRET fluorescence (AID 588341); format: cell-based;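 also: cell based assay in CHO-K1 cells stably expressing beta-lactamase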
# [10] = biological target: T6, Corticotropin-releasing factor receptor 2/Corticotropin-releasing factor-binding protein (Homo sapiens, UniProt P24387+Q13324); test: activators of CRF receptor 2 with binding protein – uHTS hits, confirmation (AID 602473); format: functional; conditions: read-out: EC50_Mean
# T6 sequence (Q13324 whole entry): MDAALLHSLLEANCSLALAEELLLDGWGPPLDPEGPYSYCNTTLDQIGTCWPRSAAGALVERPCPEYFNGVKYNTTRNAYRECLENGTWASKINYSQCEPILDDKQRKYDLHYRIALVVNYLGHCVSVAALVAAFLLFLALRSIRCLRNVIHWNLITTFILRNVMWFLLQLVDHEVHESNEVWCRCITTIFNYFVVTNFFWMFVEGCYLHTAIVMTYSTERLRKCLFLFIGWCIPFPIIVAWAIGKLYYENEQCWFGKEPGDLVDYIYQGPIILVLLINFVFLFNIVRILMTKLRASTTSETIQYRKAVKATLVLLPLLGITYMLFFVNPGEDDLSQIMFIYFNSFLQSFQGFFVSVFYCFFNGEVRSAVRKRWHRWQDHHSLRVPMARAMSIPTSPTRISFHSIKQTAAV
# T6 sequence (P24387 whole entry): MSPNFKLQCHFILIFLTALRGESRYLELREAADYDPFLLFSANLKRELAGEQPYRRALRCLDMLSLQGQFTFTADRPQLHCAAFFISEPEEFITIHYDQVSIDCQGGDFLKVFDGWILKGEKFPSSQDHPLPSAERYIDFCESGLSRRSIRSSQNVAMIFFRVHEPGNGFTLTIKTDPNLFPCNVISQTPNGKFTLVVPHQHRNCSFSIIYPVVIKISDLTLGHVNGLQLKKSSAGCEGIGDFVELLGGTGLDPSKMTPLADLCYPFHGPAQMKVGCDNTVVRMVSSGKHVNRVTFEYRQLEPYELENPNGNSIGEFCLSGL
# [11] = biological target: FAD-linked sulfhydryl oxidase ALR (Homo sapiens, UniProt P55789); test: inhibitors of human ALR sulfhydryl oxidase, dose response, biochemical, H2O2 detection, luminescence, cherry-pick (AID 493248)
# Escherichia coli = test: microbe, parasite or virus in culture
# [12] = Fluorescence-based cell-based high throughput dose response assay for inhibitors of the interaction of nucleotide-binding oligomerization domain containing 2 (NOD2) and the receptor-interacting serine-threonine kinase 2 (RIPK2).; format: functional; conditions: Homo sapiens
# HEK293 [13] = test: cells; conditions: Homo sapiens
# HEK293 [14] = test: cells; conditions: Homo sapiens; remark: listed apart in the source
# Vero = test: cells; format: functional; conditions: Chlorocebus sabaeus
# [15] = biological target: T7, Probable nicotinate-nucleotide adenylyltransferase (Staphylococcus aureus (strain N315), UniProt P65502); format: functional, Staphylococcus aureus subsp. aureus N315;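 as to IC50 Mean: confirmatory dose-response retesting of NadD inhibitor hits first found in an ultra-high-throughput screen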
# [16] = biological target: T7, Probable nicotinate-nucleotide adenylyltransferase; format: functional, Staphylococcus aureus subsp. aureus N315; conditions: read-out: IC50_Mean
# CAAX prenyl protease 2 = CAAX prenyl protease 2 (Homo sapiens, UniProt Q9Y256); test: human Rce1 protease inhibitors, dose response, biochemical, yeast membranes, quenched-peptide fluorescence, cherry-pick (AID 588849)
# [17] = system: Streptococcus sp. 'group A'; test: growth inhibition of control SK(-) GAS strain, dose response, counter-screen for streptokinase expression inhibitor project, luminescence, kanamycin, BacTiterGlo, confirmation (AID 1900); format: functional, organism-based
# Streptokinase A = biological target: T8, Streptokinase A (Streptococcus pyogenes serotype M1, UniProt P10520); test: S. pyogenes streptokinase expression inhibitors, potency, dose response, plasminogen activation absorbance, OD405 (AID 1914); format: functional, Streptococcus pyogenes M1 GAS;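 also: secreted streptokinase activity via plasminogen activation per viability signal from cell pellet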
# T8 sequence (P10520 whole entry): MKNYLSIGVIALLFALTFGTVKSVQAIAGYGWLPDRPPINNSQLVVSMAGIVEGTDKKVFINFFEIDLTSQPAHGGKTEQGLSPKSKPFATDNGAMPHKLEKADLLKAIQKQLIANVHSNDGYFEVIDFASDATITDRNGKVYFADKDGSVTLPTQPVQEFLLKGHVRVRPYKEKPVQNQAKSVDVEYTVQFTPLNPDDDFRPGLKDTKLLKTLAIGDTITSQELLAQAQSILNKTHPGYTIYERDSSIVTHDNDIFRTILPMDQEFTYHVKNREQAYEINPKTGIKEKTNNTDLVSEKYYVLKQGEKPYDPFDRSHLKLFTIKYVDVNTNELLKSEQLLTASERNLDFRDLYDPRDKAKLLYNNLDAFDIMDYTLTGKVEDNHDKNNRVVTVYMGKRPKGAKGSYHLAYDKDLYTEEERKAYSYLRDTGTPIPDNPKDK
# Streptococcus = test: Group A Streptococcus viability loss, dose response, counter-screen for streptokinase expression inhibitor project, luminescence, BacTiterGlo (AID 1915); format: functional, organism-based;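 also: potency for reduction of bacterial viability or growth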
# Chain of Beta Lactamase (Q932Y6 whole entry): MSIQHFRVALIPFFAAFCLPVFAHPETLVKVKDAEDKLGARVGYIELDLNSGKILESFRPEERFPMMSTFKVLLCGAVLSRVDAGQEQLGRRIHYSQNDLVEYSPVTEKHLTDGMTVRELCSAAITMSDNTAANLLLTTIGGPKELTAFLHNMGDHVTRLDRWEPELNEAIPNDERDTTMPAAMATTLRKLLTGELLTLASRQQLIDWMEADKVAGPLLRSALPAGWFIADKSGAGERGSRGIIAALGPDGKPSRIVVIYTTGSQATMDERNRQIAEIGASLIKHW
# T7 sequence (P65502 whole entry): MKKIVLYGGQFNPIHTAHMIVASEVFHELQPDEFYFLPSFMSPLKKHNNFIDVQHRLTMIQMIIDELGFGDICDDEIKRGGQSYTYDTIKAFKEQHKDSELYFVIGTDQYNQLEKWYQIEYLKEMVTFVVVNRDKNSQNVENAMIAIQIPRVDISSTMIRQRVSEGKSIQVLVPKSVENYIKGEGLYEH
# Chain of Voltage-gated inwardly rectifying potassium channel KCNH2 (Q12809 whole entry): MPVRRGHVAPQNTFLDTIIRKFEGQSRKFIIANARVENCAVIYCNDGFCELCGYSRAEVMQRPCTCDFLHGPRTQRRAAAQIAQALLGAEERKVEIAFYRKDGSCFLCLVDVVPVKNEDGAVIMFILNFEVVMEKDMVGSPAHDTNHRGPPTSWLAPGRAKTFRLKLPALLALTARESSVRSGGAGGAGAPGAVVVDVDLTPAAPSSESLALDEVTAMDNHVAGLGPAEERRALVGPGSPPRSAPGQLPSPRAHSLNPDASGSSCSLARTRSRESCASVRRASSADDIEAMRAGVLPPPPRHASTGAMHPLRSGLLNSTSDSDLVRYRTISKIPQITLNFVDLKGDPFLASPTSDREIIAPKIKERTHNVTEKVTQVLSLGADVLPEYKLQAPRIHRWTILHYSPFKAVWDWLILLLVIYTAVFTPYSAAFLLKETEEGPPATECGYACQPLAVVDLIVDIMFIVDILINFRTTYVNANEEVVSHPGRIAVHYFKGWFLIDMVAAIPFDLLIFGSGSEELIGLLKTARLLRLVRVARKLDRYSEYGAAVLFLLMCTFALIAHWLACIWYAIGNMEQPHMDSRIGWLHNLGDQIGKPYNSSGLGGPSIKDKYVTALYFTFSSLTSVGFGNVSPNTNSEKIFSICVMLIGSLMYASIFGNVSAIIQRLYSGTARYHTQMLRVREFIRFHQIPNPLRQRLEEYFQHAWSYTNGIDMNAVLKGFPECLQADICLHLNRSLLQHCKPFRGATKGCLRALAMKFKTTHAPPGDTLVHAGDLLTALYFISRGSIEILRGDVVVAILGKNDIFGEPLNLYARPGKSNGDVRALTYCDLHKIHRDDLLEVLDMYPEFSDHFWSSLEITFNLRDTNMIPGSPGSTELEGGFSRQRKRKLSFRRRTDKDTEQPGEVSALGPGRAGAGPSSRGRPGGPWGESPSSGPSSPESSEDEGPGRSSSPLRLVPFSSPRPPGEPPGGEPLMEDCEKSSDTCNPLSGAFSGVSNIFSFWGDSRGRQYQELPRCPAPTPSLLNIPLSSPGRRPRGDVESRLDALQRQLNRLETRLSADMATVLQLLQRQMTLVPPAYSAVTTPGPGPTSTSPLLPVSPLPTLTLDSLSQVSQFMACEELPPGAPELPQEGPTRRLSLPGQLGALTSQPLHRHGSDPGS
# Chain of FAD-linked sulfhydryl oxidase ALR (P55789 whole entry): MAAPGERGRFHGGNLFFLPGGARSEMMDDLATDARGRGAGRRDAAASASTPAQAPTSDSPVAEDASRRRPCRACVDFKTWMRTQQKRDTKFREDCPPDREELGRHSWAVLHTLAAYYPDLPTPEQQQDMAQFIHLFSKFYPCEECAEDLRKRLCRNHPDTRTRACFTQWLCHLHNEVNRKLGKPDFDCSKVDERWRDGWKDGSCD
# Chain of CAAX prenyl protease 2 (Q9Y256 whole entry): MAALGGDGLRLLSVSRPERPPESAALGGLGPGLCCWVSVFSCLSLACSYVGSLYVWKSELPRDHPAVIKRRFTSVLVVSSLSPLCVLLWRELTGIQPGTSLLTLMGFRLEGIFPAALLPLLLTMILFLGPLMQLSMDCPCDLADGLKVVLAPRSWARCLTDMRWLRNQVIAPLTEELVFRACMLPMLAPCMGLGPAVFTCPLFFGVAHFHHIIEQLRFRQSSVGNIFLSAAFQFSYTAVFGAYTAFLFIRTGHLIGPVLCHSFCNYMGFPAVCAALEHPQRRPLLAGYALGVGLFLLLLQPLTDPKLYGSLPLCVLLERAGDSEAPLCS
smiles,measurement,setting,value
O=C(Nc1ccc(N2CCN(C(=O)c3ccccc3F)CC2)cc1)c1cncc(Br)c1,IC50,Interleukin-8 [1],> 79 µM (inactive)
same,IC50,Interleukin-8 [2],6.77 µM (active)
O=C(O)[C@@H]1COC(c2ccc(F)cc2F)=N1,EC50,[3],> 100 µM (inactive)
NC(Cc1ccc(N(CCCl)CCCl)cc1)C(=O)O (stereo unspecified) [SARCOLYSIN],AC50,[4],35.5 µM (inconclusive)
CN(N=Cc1ccc([N+](=O)[O-])cc1)c1ccccn1,EC50,[5],51.8 µM (inactive)
same,EC50,[6],37.8 µM (inactive)
O=C(Nc1ccc2nc(-c3ccc(Br)o3)[nH]c2c1)c1cccs1,IC50,[7],> 100 µM (inactive)
COc1ccc(C(=O)c2sc3nc(C)cc(-c4cccs4)c3c2N)cc1,EC50,[8],16.9 µM (active)
same,EC50,[9],11 µM (active)
same,IC50,CHO,> 49.7 µM (inactive)
same,IC50,Beta Lactamase,3.85 µM (active)
same,EC50,[10],6.58 µM (active)
CC(C=O)Cc1ccc(C(C)(C)C)cc1 (stereo unspecified),AC50,[4],50.1 µM (inconclusive)
Cc1ccc(SCc2noc(C(=O)NC(C)C)c2C(=O)O)cc1C,AC50,[11],4.26 µM (active)
same,AC50,Escherichia coli,65.6 µM (active)
O=C1c2cc(Cl)ccc2-n2c1nc1ccccc1c2=O,IC50,[7],60.3 µM (active)
O=[N+]([O-])c1ccc(Sc2ccncn2)c([N+](=O)[O-])c1,IC50,[12],7.56 µM (active)
same,EC50,HEK293 [13],> 59.6 µM (inactive)
same,EC50,HEK293 [14],> 59.6 µM (inactive)
COc1cc(/C=C/c2ccc3c(Br)cc(Br)c(O)c3n2)ccc1O,IC50,CHO,7.79 µM (active)
same,IC50,Beta Lactamase,7.68 µM (active)
same,CC50,Vero,13.4 µM (active)
same,IC50,[15],10.1 µM (active)
same,IC50,[16],44.9 µM (active)
CCN(CC)c1ccc(/C=N/NC(=O)C(O)(c2ccccc2)c2ccccc2)o1,AC50,CAAX prenyl protease 2,> 100 µM (inactive)
Cc1cccc(N=Nc2c(O)[nH]c3ccc(F)cc23)c1,EC50,[5],38.7 µM (inactive)
same,EC50,[6],> 99 µM (inactive)
CC(C)(C)c1ccc(OCC(O)CS(=O)(=O)c2ccccn2)cc1 (stereo unspecified),EC50,[17],> 150 µM (not active)
same,EC50,Streptokinase A,> 150 µM (not active)
same,EC50,Streptococcus,> 150 µM (not active)
same,AC50,Escherichia coli,23.7 µM (active)
